Experimental data from ChEMBL document CHEMBL1201862, “PubChem BioAssay data set” (2004).
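96-well plates; 48 h exposure; 5 concentrations. Endpoints by linear interpolation between flanking doses. Not reached: highest tested concentration assigned. At the GI50, growth is halved.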 The source made the active and inactive calls. No stated cut-off is given here; in the data, active = GI50 up to about 1.1 µM and inactive = higher.

Columns and labels:
Test in all cases: NCI-60 cell line screen, 48 h
A498 = test system: A498
ACHN = test system: ACHN
CAKI-1 = test system: CAKI-1
CCRF-CEM = test system: CCRF-CEM
COLO 205 = test system: COLO 205
HCC 2998 = test system: HCC 2998
HCT-116 = test system: HCT-116
HOP-62 = test system: HOP-62
HOP-92 = test system: HOP-92
HT-29 = test system: HT-29
IGROV-1 = test system: IGROV-1
M14 = test system: M14
NCI/ADR-RES = test system: NCI/ADR-RES
OVCAR-3 = test system: OVCAR-3
PC-3 = test system: PC-3
RPMI-8226 = test system: RPMI-8226
SF-539 = test system: SF-539
SN12C = test system: SN12C
SR = test system: SR
UACC-257 = test system: UACC-257

| SMILES | GI50 (A498) | GI50 (ACHN) | GI50 (CAKI-1) | GI50 (CCRF-CEM) | GI50 (COLO 205) | GI50 (HCC 2998) | GI50 (HCT-116) | GI50 (HOP-62) | GI50 (HOP-92) | GI50 (HT-29) | GI50 (IGROV-1) | GI50 (M14) | GI50 (NCI/ADR-RES) | GI50 (OVCAR-3) | GI50 (PC-3) | GI50 (RPMI-8226) | GI50 (SF-539) | GI50 (SN12C) | GI50 (SR) | GI50 (UACC-257) |
| --- | --- | --- | --- | --- | --- | --- | --- | --- | --- | --- | --- | --- | --- | --- | --- | --- | --- | --- | --- | --- |
| CC(C)(C)OC(=O)NC(Cc1ccc(OC(C)(C)C)cc1)C(=O)N[C@H]1CCC[C@H]1C(=O)NC(Cc1ccccc1)C(=O)N1CCCC1C(N)=O (some centres undefined) | > 100 µM (inactive) | > 100 µM (inactive) | > 100 µM (inactive) | > 100 µM (inactive) | > 100 µM (inactive) | > 100 µM (inactive) | > 100 µM (inactive) | > 100 µM (inactive) | > 100 µM (inactive) | > 100 µM (inactive) | > 100 µM (inactive) | > 100 µM (inactive) | > 100 µM (inactive) | > 100 µM (inactive) | > 100 µM (inactive) | 80.5 µM (inactive) | > 100 µM (inactive) | > 100 µM (inactive) | > 100 µM (inactive) | > 100 µM (inactive) |
| COc1ccc2c[n+](C)c3c4cc(OC)c(OC)cc4ccc3c2c1 | 45.8 µM (inactive) | 64.6 µM (inactive) | 42.3 µM (inactive) | 3.37 µM (inactive) | 0.776 µM (active) | 8.11 µM (inactive) | 4.37 µM (inactive) | 8.02 µM (inactive) | 10.1 µM (inactive) | 4.1 µM (inactive) | 4.89 µM (inactive) | 15.7 µM (inactive) | > 100 µM (inactive) | 3.9 µM (inactive) | 0.849 µM (active) | 2.96 µM (inactive) | 10.7 µM (inactive) | 2.02 µM (inactive) | 2.87 µM (inactive) | 20.7 µM (inactive) |
| Clc1ccccc1-c1nn2c(CCCCCCCCc3nnc4sc(-c5ccccc5Cl)nn34)nnc2s1 | > 100 µM (inactive) | > 100 µM (inactive) | > 100 µM (inactive) | 61.7 µM (inactive) | > 100 µM (inactive) | > 100 µM (inactive) | > 100 µM (inactive) | > 100 µM (inactive) | > 100 µM (inactive) | 52.1 µM (inactive) |  | > 100 µM (inactive) | > 100 µM (inactive) | > 100 µM (inactive) | > 100 µM (inactive) | 54 µM (inactive) | > 100 µM (inactive) | > 100 µM (inactive) | > 100 µM (inactive) | > 100 µM (inactive) |
| c1ccc2c[n+](Cc3ccnc4ccccc34)ccc2c1 | > 100 µM (inactive) | > 100 µM (inactive) | > 100 µM (inactive) | > 100 µM (inactive) | 67.1 µM (inactive) | > 100 µM (inactive) | > 100 µM (inactive) | > 100 µM (inactive) | 97.7 µM (inactive) | 51.8 µM (inactive) | > 100 µM (inactive) | > 100 µM (inactive) | > 100 µM (inactive) | 67 µM (inactive) | > 100 µM (inactive) | > 100 µM (inactive) | > 100 µM (inactive) | > 100 µM (inactive) | > 100 µM (inactive) | > 100 µM (inactive) |
| CCOC(=O)C(NC(=O)CC)(N1CCN(c2cc3c(cc2F)c(=O)c(C(=O)O)cn3C2CC2)CC1)C(F)(F)F (centres undefined) | > 100 µM (inactive) | > 100 µM (inactive) | > 100 µM (inactive) | 91.8 µM (inactive) | > 100 µM (inactive) | > 100 µM (inactive) | > 100 µM (inactive) | > 100 µM (inactive) | 70.8 µM (inactive) | > 100 µM (inactive) | > 100 µM (inactive) | > 100 µM (inactive) | > 100 µM (inactive) | > 100 µM (inactive) | > 100 µM (inactive) | > 100 µM (inactive) | > 100 µM (inactive) | > 100 µM (inactive) | > 100 µM (inactive) | > 100 µM (inactive) |
| O=C1/C(=C2\Sc3c(ccc(Cl)c3Cl)C2=O)Sc2c1ccc(Cl)c2Cl | > 100 µM (inactive) | > 100 µM (inactive) | > 100 µM (inactive) | > 100 µM (inactive) | > 100 µM (inactive) | > 100 µM (inactive) | > 100 µM (inactive) | 12.6 µM (inactive) | > 100 µM (inactive) | > 100 µM (inactive) | > 100 µM (inactive) | > 100 µM (inactive) | > 100 µM (inactive) | 12.5 µM (inactive) | > 100 µM (inactive) | > 100 µM (inactive) | > 100 µM (inactive) | > 100 µM (inactive) | > 100 µM (inactive) | > 100 µM (inactive) |
| Cc1cc2c([N+](=O)[O-])cc3c(c2o1)C(=O)C=CC3=O | 15.5 µM (inactive) | 1.89 µM (inactive) | 1.06 µM (active) | 1.43 µM (inactive) | 2.3 µM (inactive) | 30.5 µM (inactive) | 5.51 µM (inactive) | 19 µM (inactive) | 1.72 µM (inactive) | 2.12 µM (inactive) | 7.41 µM (inactive) | 5.58 µM (inactive) | 22.9 µM (inactive) | 5.64 µM (inactive) | 16.4 µM (inactive) | 0.586 µM (active) | 15.1 µM (inactive) | 6.19 µM (inactive) | 5.41 µM (inactive) | 2.62 µM (inactive) |
| C/C(=C\c1ccccc1)C(=O)NCc1ccc(C(=O)NCCc2c[nH]c3ccccc23)cc1 | 22 µM (inactive) | 38.1 µM (inactive) | > 100 µM (inactive) | 2.39 µM (inactive) | 37.6 µM (inactive) | 16 µM (inactive) | 58.3 µM (inactive) | 82 µM (inactive) | > 100 µM (inactive) | > 100 µM (inactive) | > 100 µM (inactive) | > 100 µM (inactive) | > 100 µM (inactive) | 42 µM (inactive) | 54.6 µM (inactive) | > 100 µM (inactive) | > 100 µM (inactive) | > 100 µM (inactive) | > 100 µM (inactive) | 13.6 µM (inactive) |
| CC(C)(C)NC(=O)/C(=C\Sc1ccccc1)c1ccccc1 | > 100 µM (inactive) | > 100 µM (inactive) | > 100 µM (inactive) | 40.6 µM (inactive) | > 71 µM (inactive) | > 100 µM (inactive) | > 65.6 µM (inactive) | > 100 µM (inactive) | 2.54 µM (inactive) | > 100 µM (inactive) | > 100 µM (inactive) | > 100 µM (inactive) | > 29 µM (inactive) | > 100 µM (inactive) | > 76.2 µM (inactive) | 19.6 µM (inactive) | > 64 µM (inactive) | > 100 µM (inactive) | 46.6 µM (inactive) | > 100 µM (inactive) |
| CC(=O)Oc1ccc(/C=C/C(=O)NCC(NC(=O)/C=C/c2ccc(OC(C)=O)c(OC(C)=O)c2)C(=O)O)cc1OC(C)=O (centres undefined) | > 100 µM (inactive) | > 100 µM (inactive) | > 100 µM (inactive) | 32 µM (inactive) | > 100 µM (inactive) | > 100 µM (inactive) | > 100 µM (inactive) | > 100 µM (inactive) | > 100 µM (inactive) | 50.8 µM (inactive) | > 100 µM (inactive) | > 100 µM (inactive) | > 100 µM (inactive) | > 100 µM (inactive) | > 100 µM (inactive) | > 100 µM (inactive) | > 100 µM (inactive) | > 100 µM (inactive) | 33.4 µM (inactive) | > 100 µM (inactive) |
